Experimental data from US20030175810A1, “Assay method and system for identification of P2Y receptor agonists and antagonists” (priority 2000, published 2003).
Blank lines part the entries; values can stand above or below the molecule they belong to.

Assays:
P2Y1 receptor = target: T1, P2Y1 receptor (Homo sapiens, UniProt P47900); assay: steady state GTP hydrolysis by purified P2Y1-R reconstituted with Gα11 and Gβ1γ2 in proteoliposomes; format: biochemical
T1 construct: hexahistidine; made in house; host or cells: baculovirus / Sf9 insect cells are named only as a preferred embodiment
T1 sequence (P47900 whole entry): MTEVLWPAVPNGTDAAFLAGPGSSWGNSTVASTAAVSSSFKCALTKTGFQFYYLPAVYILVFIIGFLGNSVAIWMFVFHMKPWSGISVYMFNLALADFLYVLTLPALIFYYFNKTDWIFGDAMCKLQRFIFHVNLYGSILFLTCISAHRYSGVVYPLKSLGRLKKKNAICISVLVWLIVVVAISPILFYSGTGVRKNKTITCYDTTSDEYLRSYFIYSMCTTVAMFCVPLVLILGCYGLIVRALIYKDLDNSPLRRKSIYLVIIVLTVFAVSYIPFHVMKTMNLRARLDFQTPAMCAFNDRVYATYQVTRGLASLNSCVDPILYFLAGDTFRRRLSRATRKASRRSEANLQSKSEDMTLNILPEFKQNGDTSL
Procedure: Purified human P2Y1-R, Gα11, and Gβ1y2 were reconstituted in phospholipid vesicles.
In a glass tube, the following lipid solutions, which are made by solubilizing the lipids in chloroform, are combined: 11 μl PE (10 mg/ml), 7 μl PS (10 mg/ml), 4 μl cholesteryl hemisuccinate (2 mM). The mixture is dried under a stream of N2 or argon to prevent oxidation. The lipids are then dissolved in a buffer containing deoxycholate at 0.4% and sonicated to ensure complete solubilization. Proteins are added sequentially: 50 pmol of the appropriate G protein α subunit, 150 pmol Gβγ and 15 pmol of P2Y receptor. The mixture is passed over a sizing column to isolate the vesicles from the single components and the detergent. Isolated vesicles can then used for the GTP hydrolysis assays for which they can be diluted depending on their quality.
(§1) In a steady state embodiment of the present invention, vesicles are combined with agonists, GAP proteins γ-[^32P] labeled GTP, all in an appropriate buffer system. The assay is then incubated at between 20° C. and 30° C. for various times. P2Y receptor-promoted activity is measured as released ^32P, which is separated from [γ-^32P]GTP after the assay is halted by transfer to ice and addition of ice cold 5% slurry or activated charcoal in 20 mM phosphoric acid. See Biddlecome et al., J. Biol. Chem. 271: 7999-8007.
The P2Y1 receptor was expressed, purified and reconstituted into vesicles as described herein. GTP hydrolysis was measured by incubation of vesicles with 2 μM [γ^32P]GTP and quantitation of released [^32P]Pi.

[1] = test system: P2Y1 receptor/Gαq/β1γ2 vesicles; assay: promotion of 2MeSADP-stimulated GTPase activity of P2Y1 receptor/Gαq/β1γ2 vesicles; format: biochemical; conditions: 1 μM 2MeSADP, FIG. 4 and 5
Procedure: Purified P2Y1-R was reconstituted with Gαq and Gβ1y2.
FIG. 5 is a line graph depicting promotion of 2MeSADP-stimulated GTP hydrolysis by phospholipase C-β1. P2Y1-R was reconstituted with Gαq and Gβ1y2.
as §1
The selectivity of the P2Y1 receptor for coupling to various G proteins, and the selectivity of RGS proteins and phospholipase C-β isoenzymes for promoting GTPase activities were studied.

stimulation of GTPase activity over basal (P2Y1 receptor; agonist together with RGS4, FIG. 2A): up to 100 fold
EC70 concentration of agonist (P2Y1 receptor; concentration used to identify antagonists): approximately 50 nM
hydrolysis of GTP on addition of agonist (P2Y1 receptor; in the presence of RGS4, FIG. 1): marked increase
Molecule: 2-methylthioadenosine 5′-diphosphate [2MeSADP]

agonist versus antagonist nature at the P2Y1 receptor (P2Y1 receptor; in the absence of receptor reserve): pure antagonist
Molecule: Nc1ncnc2c1ncn2[C@@H]1O[C@H](COP(=O)(O)OP(=O)(O)OP(=O)(O)O)[C@@H](O)[C@H]1O [ATP, adenosine 5′-triphosphate]

B1: Phospholipase C-β1: phospholipase C-β isoenzyme stimulating GTPase activity of Gαq (protein, UniProt Q9NQ66 1-1216, looked up)
1-phosphatidylinositol …: MAGAQPGVHALQLKPVCVSDSLKKGTKFVKWDDDSTIVTPIILRTDPQGFFFYWTDQNKETELLDLSLVKDARCGRHAKAPKDPKLRELLDVGNIGRLEQRMITVVYGPDLVNISHLNLVAFQEEVAKEWTNEVFSLATNLLAQNMSRDAFLEKAYTKLKLQVTPEGRIPLKNIYRLFSADRKRVETALEACSLPSSRNDSIPQEDFTPEVYRVFLNNLCPRPEIDNIFSEFGAKSKPYLTVDQMMDFINLKQRDPRLNEILYPPLKQEQVQVLIEKYEPNNSLARKGQISVDGFMRYLSGEENGVVSPEKLDLNEDMSQPLSHYFINSSHNTYLTAGQLAGNSSVEMYRQVLLSGCRCVELDCWKGRTAEEEPVITHGFTMTTEISFKEVIEAIAECAFKTSPFPILLSFENHVDSPKQQAKMAEYCRLIFGDALLMEPLEKYPLESGVPLPSPMDLMYKILVKNKKKSHKSSEGSGKKKLSEQASNTYSDSSSMFEPSSPGAGEADTESDDDDDDDDCKKSSMDEGTAGSEAMATEEMSNLVNYIQPVKFESFEISKKRNKSFEMSSFVETKGLEQLTKSPVEFVEYNKMQLSRIYPKGTRVDSSNYMPQLFWNAGCQMVALNFQTMDLAMQINMGMYEYNGKSGYRLKPEFMRRPDKHFDPFTEGIVDGIVANTLSVKIISGQFLSDKKVGTYVEVDMFGLPVDTRRKAFKTKTSQGNAVNPVWEEEPIVFKKVVLPTLACLRIAVYEEGGKFIGHRILPVQAIRPGYHYICLRNERNQPLTLPAVFVYIEVKDYVPDTYADVIEALSNPIRYVNLMEQRAKQLAALTLEDEEEVKKEADPGETPSEAPSEARTTPAENGVNHTTTLTPKPPSQALHSQPAPGSVKAPAKTEDLIQSVLTEVEAQTIEELKQQKSFVKLQKKHYKEMKDLVKRHHKKTTDLIKEHTTKYNEIQNDYLRRRAALEKSAKKDSKKKSEPSSPDHGSSTIEQDLAALDAEMTQKLIDLKDKQQQQLLNLRQEQYYSEKYQKREHIKLLIQKLTDVAEECQNNQLKKLKEICEKEKKELKKKMDKKRQEKITEAKSKDKSQMEEEKTEMIRSYIQEVVQYIKRLEEAQSKRQEKLVEKHKEIRQQILDEKPKLQVELEQEYQDKFKRLPLEILEFVQEAMKGKISEDSNHGSAPLSLSSDPGKVNHKTPSSEELGGDIPGKEFDTPL
promotion of GTPase activity (potency and efficacy in words) [1]: potent and efficacious stimulator
